Experimental data taken from patent US6127543A, “Antimalarial organometallic iron complexes” (Universite des Sciences et Technologies de Lille, priority 1995, dated 2000).
Converted amounts (≈) assume the structure as drawn. Like-named read-outs stand apart in the source and are kept apart here.

Columns and labels:
P. berghei, N strain = test: In vivo test in mice infected with P. berghei, N strain; details: for Mortality: female SWISS mice, 4 subcutaneous injections D0-D2
Description: Methodology: the laboratory mice can be infected with various strains of rodent Plasmodium. Female SWISS mice (about 30 g) (5 per group) were inoculated on D0 with […] P. berghei parasites, chloroquinine-sensitive, lethal strain. The mice were treated between D0 and D2 using 4 subcutaneous injections of chloroquinine or of compound SN1, with a total dose of 1 or 10 mg/kg of weight. The parasitemia and mortality were monitored from D3, for at least 40 days.
The compound SN1 and its salt, SN1 ditartrate, were tested.

[1] = tested on: P. falciparum line M25 (chloroquinine-sensitive); test: In vitro activity on established line M25 (48 h culture); assay type: cell-based; details: Plasmodium falciparum, two experiments, one line each
Description: (§1) The proliferation of the parasites is measured by incorporation of ^3 [H] hypoxanthine applied to the cultures 16 hours before the end of the culture. The radioactive hypoxanthine is absorbed by the developing parasites. The quantity absorbed is measured by a Beta counter in counts per minute.
(§2) Three P. faciparum lines M25, chloroquinine-sensitive, and FCM 6 and FCM 17, chloroquinine-resistant, were cultured at a parasitemia rate approaching 1%, at the trophozoite stage, for a period of 48 hours.

P. yoelii, strain NS = test: In vivo test in mice infected with chloroquinine-resistant P. yoelii, strain NS; details: 10 mg/kg
[2] = tested on: P. falciparum line FCM 6 (chloroquinine-resistant); test: microbe, parasite or virus in culture; assay type: cell-based; details: Plasmodium falciparum, FCM6, chloroquinine-resistant; two experiments, one line each
Description: as §1, §2

[3] = tested on: P. falciparum line FCM 17 (chloroquinine-resistant); test: microbe, parasite or virus in culture; assay type: cell-based; details: Plasmodium falciparum, FCM17, chloroquinine-resistant; two experiments, one line each
Description: as §1, §2

[4] = tested on: field strains (Francevilloises strains); test: In vitro inhibition of parasite proliferation (3[H] hypoxanthine incorporation), field strains; assay type: cell-based, Plasmodium falciparum
Description: As mentioned above, the in vitro activity of organometallic complexes of the invention was measured on field strains.
as §1

SMILES: CCN(CC)CCCC(C)Nc1ccnc2cc(Cl)ccc12 (centres unmarked) [Chloroquinine]
- Mortality (P. berghei, N strain; Exp 1, total dose 1 mg/kg): 5/5
- Mortality (P. berghei, N strain; Exp 1, total dose 10 mg/kg): 5/5
- Mortality (P. berghei, N strain; Exp 2, total dose 1 mg/kg): 5/5
- Mortality (P. berghei, N strain; Exp 2, total dose 10 mg/kg): 5/5
- IC50 [1]: 0.069 µg/mL (≈ 0.216 µM)
- parasites detected / parasitemia (P. yoelii, strain NS): high parasitemia
- IC50 [2]: 0.492 µg/mL (≈ 1.54 µM)
- IC50 [3]: 0.555 µg/mL (≈ 1.74 µM)
- IC50 ([4]; Plasmodium falciparum, Strain No. 17): 200 nM
- IC50 ([4]; Plasmodium falciparum, Strain No. 265): > 1000 nM
- IC50 ([4]; Plasmodium falciparum, Strain No. 309): 980 nM
- IC50 ([4]; Plasmodium falciparum, Strain No. 823): > 1000 nM
- IC50 ([4]; Plasmodium falciparum, Strain No. 917): 190 nM
- IC50 ([4]; Plasmodium falciparum, Strain No. 926): > 1000 nM
- IC50 ([4]; Plasmodium falciparum, Strain No. 935): > 1000 nM
- IC50 ([4]; Plasmodium falciparum, read-out: IC50 (range over strains), Francevilloises strains, 7 strains tested): 190 to 1000 nM
- IC50 ([4]; Plasmodium falciparum, read-out: ID 50, Strain No. 17): 2000 nM
- IC50 ([4]; Plasmodium falciparum, read-out: ID 50, Strain No. 265): > 10000 nM
- IC50 ([4]; Plasmodium falciparum, read-out: ID 50, Strain No. 309): 9800 nM
- IC50 ([4]; Plasmodium falciparum, read-out: ID 50, Strain No. 823): > 10000 nM
- IC50 ([4]; Plasmodium falciparum, read-out: ID 50, Strain No. 917): 1900 nM
- IC50 ([4]; Plasmodium falciparum, read-out: ID 50, Strain No. 926): > 10000 nM
- IC50 ([4]; Plasmodium falciparum, read-out: ID 50, Strain No. 935): > 10000 nM
- chloroquinine-resistance of the strains ([4]; in words, Francevilloises strains): high chloroquinine-resistance

SMILES: CN(C)Cc1ccc[c-]1CNc1ccnc2cc(Cl)ccc12.[Fe+2].c1cc[cH-]c1 (centres unmarked) [SN1]
- Mortality (P. berghei, N strain; Exp 1, total dose 1 mg/kg): 5/5
- Mortality (P. berghei, N strain; Exp 1, total dose 10 mg/kg): 1/5
- Mortality (P. berghei, N strain; Exp 2, total dose 1 mg/kg): 5/5
- Mortality (P. berghei, N strain; Exp 2, total dose 10 mg/kg): 0/5
- in vivo activity compared with chloroquinine (P. berghei, N strain; in words, mice, P. berghei): better activity than chloroquinine in vivo
- IC50 ([4]; Strain No. 17, read-out: IC50): 20 nM
- IC50 ([4]; Strain No. 265, read-out: IC50): 170 nM
- IC50 ([4]; Strain No. 309, read-out: IC50): 110 nM
- IC50 ([4]; Strain No. 823, read-out: IC50): 120 nM
- IC50 ([4]; Strain No. 917, read-out: IC50): 10 nM
- IC50 ([4]; Strain No. 926, read-out: IC50): 230 nM
- IC50 ([4]; Strain No. 935, read-out: IC50): 120 nM
- action on the sole chloroquinine-resistant strain tested so far ([4]; in words, in vitro): marked action
- action on the inhibition of parasitemia ([4]; in words, in vitro, compared with quinine): greater action on the inhibition of parasitemia than quinine
